20 substances from patent US9017693B2, “Apoptotically active peptides” (Cytotools AG, priority 2001, dated 2015) can be followed below.

For assay [1], the system named is HUVEC. Description: Test system for apoptotically active peptides: TSP-1-induced apoptosis of cultivated HUVEC, DAPI dyeing. The assay is classed as cell-based, human. The protocol: For the purposes of the disclosure, the term “apoptotically active” will mean that the addition of the respective substance to the test system shown in Examples 5 and 6 generates either a positive or negative inhibition index. Particularly endothelial cells, preferably especially HUVEC, are to this end cultivated in a medium which includes 1 μg TSP-1 per ml. The percentage apoptosis values of such positive control will then serve, as shown in the examples, for the calculation of the inhibition index for those substances which are used as potential inhibitors together with the inductor TSP-1 in parallel tests.
(§1) Cultivation of HUVEC takes place in gelatin-coated culture vessels at 37° C., 5% CO2 and water vapor saturated atmosphere. The culture medium is exchanged every two to three days; in case of confluence, the cells are passaged at a cleavage rate of from 1:3 to 1:5. HUVEC grow strictly contact-inhibited and form unilaminar cell bed having the typical cobble-stone morphology. In case of confluence, the cultures reach cell densities of 4-9×10^4 cells/cm^2. For apoptosis examinations, HUVEC cultures of passages 1-4 are exclusively employed.
(§2) The culture supernatant of a Petri dish is sucked off, the cell bed is fixed on ice for 15 minutes with 1 ml formaldehyde solution, is washed twice with 2 ml PBS, is added 0.5 ml DAPI solution for 15 minutes, is washed with PBS and evaluated under the fluorescence microscope. A UV filter set and a 20× and a 40× objective are used. 500 to 1000 cells are selected at random and the cells having apoptotic nuclei are counted.
(§3) The apoptosis index is calculated in accordance with the following formula: Apoptosis index [%]=number of apoptotic cells/total cell number×100 Flow Cytometry: Solutions: • PBS • Medium • Ethanol (reagent-grade) ice-cooled (−20° C.) • DAPI buffer • DAPI stock solution • DAPI dye solution Procedure:
The culture supernatant is sucked off and the cells are trypsinized without washing them with PBS. The cell suspension is received in medium, is counted, is centrifuged at 800×g for 5 minutes, the sediment is re-suspended in 0.5 ml IF and is dripped into 1.5 ml ice-cold ethanol. The suspension is stored overnight at […]. After renewed centrifugation and re-suspending of the sediment in 2 ml PBS, there follows a half-hour incubation at 37° C., further centrifugation, re-suspending of the sediment in 5 ml DAPI solution, and counting in the flow cytometer at a counting rate of 50 to 300 events per second. […] Caused by the decreasing absolute DNS amount per cell, apoptotic cells appear in a sub-G1 peak [Darzynklewicz Z. et al., Cytometry, 13, 795-808 (1992); Zamai L. et al., Cytometry, 14, 891-897 (1993)].
The cells were cultivated as described in Example 1. The cells are seeded in the corresponding culture vessels (e.g. 24-hole plate/0.5 ml per cavity) and, having obtained complete confluence, are employed for the test. The cells are provided with new medium: • (a) fresh culture medium [Base rate of apoptosis], • (b) fresh medium with 1 μg/ml TSP-1 [Apoptosis-induced substance; control], • (c) medium (b)+peptide of SEQ ID NO 1, 1 mM • (d) medium (b)+peptide of SEQ ID NO 2, 1 mM • (e) medium (b)+peptide of SEQ ID NO 3, 1 mM • (f) medium (b)+peptide of SEQ ID NO 4, 1 mM • (g) medium (b)+peptide of SEQ ID NO 7, 1 mM • (h) medium (b)+peptide of SEQ ID NO 8, 1 mM • (i) medium (b)+peptide of SEQ ID NO 9, 1 mM • (j) medium (b)+peptide of SEQ ID NO 10, 1 mM • (k) medium (b)+peptide of SEQ ID NO 11, 1 mM • (l) medium (b)+peptide of SEQ ID NO 12, 1 mM • (m) medium (b)+peptide of SEQ ID NO 13, 1 mM • (n) medium (b)+peptide of SEQ ID NO 14, 1 mM • (o) medium (b)+peptide of SEQ ID NO 15, 1 mM • (p) medium (b)+peptide of SEQ ID NO 16, 1 mM • (q) medium (b)+peptide of SEQ ID NO 17, 1 mM • (r) medium (b)+peptide of SEQ ID NO 18, 1 mM • (s) medium (b)+peptide of SEQ ID NO 19, 1 mM […]

The test system of assay [2] is HUVEC. Description: Induction of apoptosis at HUVEC with TSP-1. The assay is classed as cell-based, human. To be noted: confluent HUVEC, fresh medium + TSP-1 1 μg/ml; fresh medium alone 0.9 ± 0.1. The method, then: as §1, §2, §3
The cells are cultivated as described in Example 1. Having obtained complete confluence, the cells are used for the test. […]

Setting [3] is: lengthened peptide sequences, TSP-1 + peptide, tests as in Example 5, control 8.73 ± 0.43.
Where [4] appears, read: lengthened peptide sequences, TSP-1 + peptide, tests as in Example 5, positive = substance inhibited.
Where [5] appears, read: 1 μg/ml TSP-1 + peptide 1 mM, 24 hours, positive = substance inhibited, negative = substance induced apoptosis.
Where [6] appears, read: medium with 1 μg/ml TSP-1 + peptide 1 mM, 24 hours, mean ± SD of three independent experiments, control 3.28 ± 0.55.

Non-standard residues stand in square brackets, D forms with d. No end group written: not given here.

Turning to “K-R-A-Y-V-V-M-W-K-K (KRAYVVMWLL) [SEQ ID NO 5]”, the “Apoptosis index [%]” value in assay [1] (setting [3]) was 0.37 ± 0.22%. For the same substance, the “Inhibition index [%]” value in assay [1] (setting [4]) is “+95.8 ± 2.6%”.
For “K-R-E-Y-V-V-M-W-K-K (LREYVVMWKK) [SEQ ID NO 6]”, in that order: 0.48 ± 0.22% and “+94.5 ± 2.5%”.
As to M-V-V-Y-F-R (MVVYFR) [SEQ ID NO 12], the “Inhibition index [%]” value in assay [1] (setting [5]) was −34.1 ± 6.2%. Moreover, the “Apoptosis index [%]” value in assay [1] (setting [6]) amounted to 4.40 ± 0.53%.
The corresponding values for R-A-Y-V-V-A (RAYVVA) [SEQ ID NO 13] are −51.8 ± 6.0% and 4.98 ± 0.3%.
For R-A-Y-V-V-M (RAYVVM) [SEQ ID NO 1], in that order: “+75.3 ± 7.5%” and 0.83 ± 0.24%.
The corresponding values for R-C-Y-V-V-M (RCYVVM) [SEQ ID NO 17] are −326.5 ± 3.6% and 13.97 ± 0.35%.
Consider R-D-Y-V-V-M (RDYVVM) [SEQ ID NO 11], for which the “Inhibition index [%]” value in assay [1] (setting [5]) is listed as “+37.3 ± 14.0%”. Moreover, in assay [1] (setting [6]), the “Apoptosis index [%]” value is on record as 2.12 ± 0.47%.
On to R-E-Y-V-V-M (REYVVM) [SEQ ID NO 4], for which the “Inhibition index [%]” value in assay [1] (setting [5]) is “+69.0 ± 8.9%”. Moreover, in assay [1] (setting [6]), the “Apoptosis index [%]” value was found to be 1.04 ± 0.30%.
The corresponding values for R-G-Y-V-V-M (RGYVVM) [SEQ ID NO 7] are “+46.4 ± 11.1%” and 1.83 ± 0.37%.
The corresponding values for R-L-Y-V-V-M (RLYVVM) [SEQ ID NO 14] are −95.4 ± 6.1% and 6.41 ± 0.63%.
For R-M-Y-V-V-M (RMYVVM) [SEQ ID NO 8], in that order: “+44.2 ± 11.6%” and 1.84 ± 0.39%.
Turning to R-N-Y-V-V-M (RNYVVM) [SEQ ID NO 10], in assay [1] (setting [5]), the “Inhibition index [%]” value is “+39.5 ± 15.8%”. In addition, in assay [1] (setting [6]), the “Apoptosis index [%]” value is given as 2.06 ± 0.53%.
With R-P-Y-V-V-M (RPYVVM) [SEQ ID NO 15], the “Inhibition index [%]” value in assay [1] (setting [5]) is −72.8 ± 6.4%. Besides, the “Apoptosis index [%]” value in assay [1] (setting [6]) is on record as 5.67 ± 0.54%.
Consider R-S-Y-V-V-M (RSYVVM) [SEQ ID NO 16], for which the “Inhibition index [%]” value in assay [1] (setting [5]) is listed as −108.4 ± 3.7%. The “Apoptosis index [%]” value in assay [1] (setting [6]) is on record as 6.86 ± 0.37%.
The corresponding values for R-T-Y-V-V-M (RTYVVM) [SEQ ID NO 9] are “+44.5 ± 9.8%” and 1.86 ± 0.36%.
For R-W-Y-V-V-M (RWYVVM) [SEQ ID NO 2], in that order: “+61.9 ± 7.7%” and 1.30 ± 0.26%.
The corresponding values for R-Y-Y-V-V-M (RYYVVM) [SEQ ID NO 3] are “+74.7 ± 5.0%” and 0.85 ± 0.17%.
Turning to “TSP-1: thrombospondin 1, apoptosis-inducing substance added at 1 μg/ml to HUVEC medium as inductor/control”, the “Apoptosis rate (%) after 24 h” value in assay [2] worked out at 3.0 ± 0.4%.
Take “m-v-v-y-a-r ([dM][dV][dV][dY][dA][dR]) [SEQ ID NO 19]”: in assay [1] (setting [5]), the “Inhibition index [%]” value is −247.1 ± 5.4%. Also, the “Apoptosis index [%]” value in assay [1] (setting [6]) amounted to 11.4 ± 0.63%.
With “m-v-v-y-f-r ([dM][dV][dV][dY][dF][dR]) [SEQ ID NO 18]”, the “Inhibition index [%]” value in assay [1] (setting [5]) is given as −345.1 ± 5.1%. Also, the “Apoptosis index [%]” value in assay [1] (setting [6]) was 14.6 ± 0.75%.
